“And” between values parts separate entries of the source, which are not always exact repeats. Identical values can stand only once. “Also recorded” adds a separate entry of the source. Like-named read-outs stand apart in the source and are kept apart here.
Columns and labels:
[1] = target: T1, xanthine oxidase (XO) enzyme (bovine milk) (Bos taurus, UniProt P80457); test: In vitro xanthine oxidase (XO) assay, uric acid formation at 295 nm with xanthine as substrate; assay type: biochemical; details: for Xanthine Oxidase Kinetic Mode: Lineweaver-Burk and Dixon plots; for inhibition at 100 µM: read-out: Xanthine Oxidase Inhibition %; for IC50: repeated three times
T1 construct: 20 µL of 0.2 unit XO enzyme (bovine milk) in buffer; from tissue; host or cells: bovine milk
Experimental: We subsequently analyzed the type of inhibition using both Lineweaver–Burk (Figure 2C) and Dixon (Figure 2D) plots.
XO activity was assayed spectrophotometrically on a Spectra Max M2 microplate reader, using published experimental procedures, with slight modifications. First, 135 µL of 100 mM sodium pyrophosphate buffer (HCl, pH 7.5), 20 µL of 0.2 unit XO enzyme (bovine milk) in buffer, and 5 µL of sample (test extract or compound) in DMSO were mixed at 37 °C. The reaction was started by adding 40 µL of substrate (0.5 mM xanthine) in buffer to the mixture. The reaction mixture (200 µL) was incubated at 37 °C in a 300 µL well plate, and the UV absorbance was determined at 295 nm.

[2] = tested on: potassium oxonate-induced hyperuricemic rats; test: Serum uric acid levels in potassium oxonate (PO)-induced hyperuricemic rats; assay type: in vivo, rat (male Sprague-Dawley); details: for effect on serum uric acid levels (in words): 40 mg/kg, PO-induced hyperuricemic rats
Experimental: Male Sprague–Dawley rats (7 weeks old) were purchased from Orient Bio (Seongmam, Korea) and were housed at a temperature of 22 ± 1 °C with 50 ± 10% humidity under a 12 h light/dark cycle with free access to a laboratory diet and water. The experimental design was approved by the Committee on Animal Care of the Korea Institute of Oriental Medicine, and all experiments were performed in accordance with committee guidelines. The uricase inhibitor PO was administered to induce hyperuricemia. The rats were divided into the following five groups (n = 6/group): (1) Normal control group; […] (3) PO + 300 mg/kg TSE group; […] Blood samples were collected via cardiac puncture under anesthesia 2 h after oral treatment. Serum was obtained by centrifugation of blood at 3000× g for 10 min at 4 °C. The separated serum was stored at −80 °C until analysis. Serum uric acid levels were determined by an enzymatic-colorimetric method using a commercial assay kit (Biovision, Milpitas, CA, USA) according to the manufacturer’s protocol.

[3] = target: T1, xanthine oxidase (XO) enzyme (bovine milk); details: cited from earlier work; for XO inhibitory effect (in words): literature statement, ref 23 (Cos et al.)
[4] = isolated compounds and controls, read-out: Xanthine Oxidase IC50
[5] = sample concentration 100 µM for each compound

T1 sequence (P80457 whole entry): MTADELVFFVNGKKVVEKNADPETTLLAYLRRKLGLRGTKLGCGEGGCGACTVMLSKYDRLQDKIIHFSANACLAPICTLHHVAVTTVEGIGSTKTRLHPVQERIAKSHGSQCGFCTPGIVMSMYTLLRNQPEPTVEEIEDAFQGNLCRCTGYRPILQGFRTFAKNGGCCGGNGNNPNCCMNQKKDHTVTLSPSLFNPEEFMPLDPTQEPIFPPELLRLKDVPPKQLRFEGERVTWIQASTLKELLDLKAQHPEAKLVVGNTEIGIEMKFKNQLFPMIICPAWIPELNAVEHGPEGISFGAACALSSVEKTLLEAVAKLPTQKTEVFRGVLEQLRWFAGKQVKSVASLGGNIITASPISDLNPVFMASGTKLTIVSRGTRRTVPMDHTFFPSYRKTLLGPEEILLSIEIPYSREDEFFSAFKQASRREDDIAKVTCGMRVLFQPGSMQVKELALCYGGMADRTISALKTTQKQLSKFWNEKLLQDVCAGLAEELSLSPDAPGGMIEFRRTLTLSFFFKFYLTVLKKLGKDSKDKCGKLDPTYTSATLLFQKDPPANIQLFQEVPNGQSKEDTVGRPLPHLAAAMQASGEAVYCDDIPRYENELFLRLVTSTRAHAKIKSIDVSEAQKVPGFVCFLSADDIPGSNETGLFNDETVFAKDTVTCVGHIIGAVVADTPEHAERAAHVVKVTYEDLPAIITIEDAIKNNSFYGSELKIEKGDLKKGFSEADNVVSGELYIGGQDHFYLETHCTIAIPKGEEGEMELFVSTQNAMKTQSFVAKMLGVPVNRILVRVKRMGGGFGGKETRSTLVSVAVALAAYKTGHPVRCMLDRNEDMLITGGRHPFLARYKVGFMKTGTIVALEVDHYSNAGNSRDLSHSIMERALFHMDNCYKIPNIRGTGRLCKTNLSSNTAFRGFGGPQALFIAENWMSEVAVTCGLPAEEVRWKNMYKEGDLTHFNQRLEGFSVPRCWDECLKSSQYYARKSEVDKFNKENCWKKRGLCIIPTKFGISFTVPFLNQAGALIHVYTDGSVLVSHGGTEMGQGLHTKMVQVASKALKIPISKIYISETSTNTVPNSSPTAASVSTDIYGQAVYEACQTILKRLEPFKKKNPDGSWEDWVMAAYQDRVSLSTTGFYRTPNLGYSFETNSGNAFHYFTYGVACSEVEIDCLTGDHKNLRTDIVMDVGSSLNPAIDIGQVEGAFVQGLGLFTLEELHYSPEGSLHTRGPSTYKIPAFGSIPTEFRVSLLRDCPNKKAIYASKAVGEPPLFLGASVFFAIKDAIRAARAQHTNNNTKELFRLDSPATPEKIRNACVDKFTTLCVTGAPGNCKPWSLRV

## Oc1ncnc2[nH]ncc12 [Allopurinol, allopurinol, reference compound]
[1]
  Xanthine Oxidase Kinetic Mode: Competitive
  inhibition at 100 µM: > 98%
[2]; 10 mg/kg oral gavage, positive control, rats
  decrease in serum uric acid level: 43.5%

## C[C@@H]1O[C@@H](OC[C@H]2O[C@@H](Oc3c(-c4ccc(O)c(O)c4)oc4cc(O)cc(O)c4c3=O)[C@H](O)[C@@H](O)[C@@H]2O)[C@H](O)[C@H](O)[C@H]1O [Compound 1, quercetin-3-O-rutinoside]
[1]; [4]
  IC50: > 100 µM
[1]; [5]
  inhibition at 100 µM: 42.9 ± 1.4%

## O=c1c(O[C@@H]2O[C@H](CO)[C@@H](O)[C@H](O)[C@H]2O)c(-c2ccc(O)c(O)c2)oc2cc(O)cc(O)c12 [Compound 2, quercetin-3-O-β-D-glucopyranoside]
[1]; [4]
  IC50: > 100 µM
[1]; [5]
  inhibition at 100 µM: 47.8 ± 1.1%

## O=C(OC[C@H]1O[C@@H](OC(=O)c2cc(O)c(O)c(O)c2)[C@H](OC(=O)c2cc(O)c(O)c(O)c2)[C@@H](OC(=O)c2cc(O)c(O)c(O)c2)[C@@H]1OC(=O)c1cc(O)c(O)c(O)c1)c1cc(O)c(O)c(O)c1 [Compound 3, 1,2,3,4,6-penta-O-galloyl-β-D-glucopyranose]
[1]; Dixon plots, substrate 50, 100, 200 µM, read-out: Xanthine Oxidase Ki (inhibition constant)
  Ki: 3.1 µM
[1]
  Xanthine Oxidase Kinetic Mode: noncompetitive inhibitor
[1]; compound 0-12.5 μM versus XO 0-0.2 unit/mL
  reversibility of XO inhibition: reversible XO inhibitor
[1]; [4]
  IC50: 2.8 µM and 2.79 µM
[1]; [5]
  inhibition at 100 µM: 96.4 ± 0.7%
[2]; 40 mg/kg oral gavage 1 h after PO, blood 2 h after treatment, rats
  reduction in serum uric acid levels compared to the PO group: 20.7%
[2]
  effect on serum uric acid levels (in words): significantly decreased serum uric acid levels; also recorded: lowered serum uric acid levels

## CC1OC(Oc2c(-c3ccc(O)c(O)c3)oc3cc(O)cc(O)c3c2=O)C(O)C(O)C1O [Compound 4, quercetin-3-O-α-L-rhamnopyranoside]
[1]; Xanthine Oxidase IC50, isolated compounds and controls
  IC50: > 100 µM
[1]
  inhibition at 100 µM: 38.9 ± 1.9%
[2]
  effect on serum uric acid levels (in words): no effect

## O=c1[nH]c(=O)c2c[nH]nc2[nH]1 [Oxypurinol, oxypurinol, reference compound]
[1]; [4]
  IC50: 28.4 ± 0.5 µM
[1]; [5]
  inhibition at 100 µM: 87.6 ± 0.9%
[3]; XO screening, ref 25 (Tamta et al.)
  XO inhibitory activity compared to allopurinol (in words): much lower inhibitory activity than allopurinol

## O=c1c(O)c(-c2ccc(O)cc2)oc2cc(O)cc(O)c12 [kaempferol]
[3]
  XO inhibitory effect (in words): strong XO inhibitory effects

## O=c1c(O)c(-c2ccc(O)c(O)c2)oc2cc(O)cc(O)c12 [quercetin]
[3]
  XO inhibitory effect (in words): strong XO inhibitory effects
